{"source": "paper PMC5218480", "about": "(PLoS ONE, 2017)", "test_system": "MV-4-11 cells", "assay": "Gene expression microarray analysis (Affymetrix PrimeView) and GSEA", "type": "cell-based, human", "parameters": "RFU PODN (11730768_x_at) / Fold change /veh PODN (11730768_x_at) / RFU LINC00158 (11744669_a_at) / Fold change /veh LINC00158 (11744669_a_at) / RFU DUSP10 (11751237_a_at) / Fold change /veh DUSP10 (11751237_a_at) / RFU ID3 (11757404_x_at) / Fold change /veh ID3 (11757404_x_at) / RFU PLEKHG5 (11737974_s_at) / Fold change /veh PLEKHG5 (11737974_s_at) / RFU LRRC4B (11730491_at) / Fold change /veh LRRC4B (11730491_at) / RFU GIMAP4 (11747438_a_at) / Fold change /veh GIMAP4 (11747438_a_at) / RFU KRT8 (11758183_x_at) / Fold change /veh KRT8 (11758183_x_at) / RFU CNN1 (11734310_a_at) / Fold change /veh CNN1 (11734310_a_at) / RFU VPS37D (11726825_at) / Fold change /veh VPS37D (11726825_at) / RFU C10orf10 (11716522_x_at) / Fold change /veh C10orf10 (11716522_x_at) / RFU KIR2DL2 /// KIR2DL4 /// KIR2DL5A /// KIR2DL5B /// KIR2DS1 /// KIR2DS2 /// KIR2DS3 /// KIR2DS4 /// KIR3DL3 /// KIR3DL3 /// KIR3DS1 (11738374_at) / Fold change /veh KIR2DL2 /// KIR2DL4 /// KIR2DL5A /// KIR2DL5B /// KIR2DS1 /// KIR2DS2 /// KIR2DS3 /// KIR2DS4 /// KIR3DL3 /// KIR3DL3 /// KIR3DS1 (11738374_at) / RFU C1QL1 (11718748_at) / Fold change /veh C1QL1 (11718748_at) / RFU TMPRSS4 (11747572_a_at) / Fold change /veh TMPRSS4 (11747572_a_at) / RFU HAMP (11756126_x_at) / Fold change /veh HAMP (11756126_x_at) / RFU RNFT2 (11725882_a_at) / Fold change /veh RNFT2 (11725882_a_at) / RFU NR4A2 (11747474_a_at) / Fold change /veh NR4A2 (11747474_a_at) / RFU ABCC12 (11746883_a_at) / Fold change /veh ABCC12 (11746883_a_at) / RFU TMEM136 (11760407_x_at) / Fold change /veh TMEM136 (11760407_x_at) / RFU CLDN22 /// WWC2 (11732394_at) / Fold change /veh CLDN22 /// WWC2 (11732394_at) / RFU HLA-DPB1 (11760878_x_at) / Fold change /veh HLA-DPB1 (11760878_x_at) / RFU SPINT1 (11716480_a_at) / Fold change /veh SPINT1 (11716480_a_at) / RFU GAP43 (11754022_s_at) / Fold change /veh GAP43 (11754022_s_at) / RFU A4GNT (11735810_at) / Fold change /veh A4GNT (11735810_at) / RFU PRB3 (11715151_x_at) / Fold change /veh PRB3 (11715151_x_at) / RFU TUBB4B (11761932_at) / Fold change /veh TUBB4B (11761932_at) / RFU CAPN14 (11732068_a_at) / Fold change /veh CAPN14 (11732068_a_at) / RFU TMCC2 (11721928_a_at) / Fold change /veh TMCC2 (11721928_a_at) / RFU IRGQ (11745062_a_at) / Fold change /veh IRGQ (11745062_a_at) / RFU FAM174B (11720279_a_at) / Fold change /veh FAM174B (11720279_a_at) / RFU TMPRSS4 (11748680_a_at) / Fold change /veh TMPRSS4 (11748680_a_at) / RFU FAM212B (11763350_a_at) / Fold change /veh FAM212B (11763350_a_at) / RFU PLEKHG5 (11743358_a_at) / Fold change /veh PLEKHG5 (11743358_a_at) / RFU ZSCAN30 (11745921_a_at) / Fold change /veh ZSCAN30 (11745921_a_at) / RFU CMKLR1 (11741424_a_at) / Fold change /veh CMKLR1 (11741424_a_at) / RFU LOC101060620 /// MAPK8IP1 (11723275_at) / Fold change /veh LOC101060620 /// MAPK8IP1 (11723275_at) / RFU SPTSSB (11747773_x_at) / Fold change /veh SPTSSB (11747773_x_at) / RFU PRSS12 (11739890_at) / Fold change /veh PRSS12 (11739890_at) / RFU BIN1 (11741810_x_at) / Fold change /veh BIN1 (11741810_x_at) / RFU WNT11 (11732464_a_at) / Fold change /veh WNT11 (11732464_a_at) / RFU C10orf10 (11716521_a_at) / Fold change /veh C10orf10 (11716521_a_at) / RFU C5orf56 (11738089_at) / Fold change /veh C5orf56 (11738089_at) / RFU CYB561 (11721691_x_at) / Fold change /veh CYB561 (11721691_x_at) / RFU ANKRD19P (11752326_a_at) / Fold change /veh ANKRD19P (11752326_a_at) / RFU OR2T12 /// OR2T33 /// OR2T8 (11738714_s_at) / Fold change /veh OR2T12 /// OR2T33 /// OR2T8 (11738714_s_at) / RFU VCAN (11748164_a_at) / Fold change /veh VCAN (11748164_a_at) / RFU JSRP1 (11732532_at) / Fold change /veh JSRP1 (11732532_at) / RFU KRTAP10-11 (11738290_x_at) / Fold change /veh KRTAP10-11 (11738290_x_at) / RFU MYO3A (11730013_a_at) / Fold change /veh MYO3A (11730013_a_at) / RFU EBF3 (11725865_a_at) / Fold change /veh EBF3 (11725865_a_at) / RFU CAMK2N1 (11719241_x_at) / Fold change /veh CAMK2N1 (11719241_x_at) / RFU C5orf56 (11738088_a_at) / Fold change /veh C5orf56 (11738088_a_at) / RFU OLFML3 (11715873_a_at) / Fold change /veh OLFML3 (11715873_a_at) / RFU LOC100653217 /// NTM (11731650_a_at) / Fold change /veh LOC100653217 /// NTM (11731650_a_at) / RFU MAPK11 (11762145_a_at) / Fold change /veh MAPK11 (11762145_a_at) / RFU FIZ1 (11724087_x_at) / Fold change /veh FIZ1 (11724087_x_at) / RFU OASL (11726364_x_at) / Fold change /veh OASL (11726364_x_at) / RFU SOX15 (11748057_x_at) / Fold change /veh SOX15 (11748057_x_at) / RFU CD79A (11719716_a_at) / Fold change /veh CD79A (11719716_a_at) / RFU HIST1H1D (11736915_at) / Fold change /veh HIST1H1D (11736915_at) / RFU CASKIN2 (11723855_a_at) / Fold change /veh CASKIN2 (11723855_a_at) / RFU LOC730098 (11760151_x_at) / Fold change /veh LOC730098 (11760151_x_at) / RFU OR4N2 (11742367_at) / Fold change /veh OR4N2 (11742367_at) / RFU PRRT2 (11749266_a_at) / Fold change /veh PRRT2 (11749266_a_at) / RFU SNX32 (11753110_a_at) / Fold change /veh SNX32 (11753110_a_at) / RFU CDHR5 (11726645_a_at) / Fold change /veh CDHR5 (11726645_a_at) / RFU RCAN1 (11760418_a_at) / Fold change /veh RCAN1 (11760418_a_at) / RFU FAM167A (11723789_a_at) / Fold change /veh FAM167A (11723789_a_at) / RFU FAM26E (11764081_at) / Fold change /veh FAM26E (11764081_at) / RFU ISYNA1 (11749810_s_at) / Fold change /veh ISYNA1 (11749810_s_at) / RFU ACY1 (11761880_at) / Fold change /veh ACY1 (11761880_at) / RFU 11764098_at / Fold change /veh 11764098_at / RFU SAMD14 (11745864_x_at) / Fold change /veh SAMD14 (11745864_x_at) / RFU NPB (11741838_a_at) / Fold change /veh NPB (11741838_a_at) / RFU TMPRSS6 (11731388_a_at) / Fold change /veh TMPRSS6 (11731388_a_at) / RFU KRTAP10-2 (11738614_at) / Fold change /veh KRTAP10-2 (11738614_at) / RFU ARHGAP8 /// PRR5-ARHGAP8 (11727945_x_at) / Fold change /veh ARHGAP8 /// PRR5-ARHGAP8 (11727945_x_at) / RFU KRTAP5-7 /// NADSYN1 (11734609_at) / Fold change /veh KRTAP5-7 /// NADSYN1 (11734609_at) / RFU RASL12 (11751679_a_at) / Fold change /veh RASL12 (11751679_a_at) / RFU CDKN2B (11736163_a_at) / Fold change /veh CDKN2B (11736163_a_at) / RFU PRF1 (11729649_at) / Fold change /veh PRF1 (11729649_at) / RFU, ZNF638 /// ZNF638-IT1 / Fold change vs veh, ZNF638 /// ZNF638-IT1 / RFU, PANK3 / Fold change vs veh, PANK3 / RFU, SH3YL1 / Fold change vs veh, SH3YL1 / RFU, ZEB2 / Fold change vs veh, ZEB2 / RFU, NRIP1 / Fold change vs veh, NRIP1 / RFU, PTTG1IP / Fold change vs veh, PTTG1IP / RFU, CAPN2 / Fold change vs veh, CAPN2 / RFU, MED14 / Fold change vs veh, MED14 / RFU, SNORA58 / Fold change vs veh, SNORA58 / RFU, C1orf63 / Fold change vs veh, C1orf63 / RFU, LRRFIP1 / Fold change vs veh, LRRFIP1 / RFU, NDUFAF7 / Fold change vs veh, NDUFAF7 / RFU, SLC12A2 / Fold change vs veh, SLC12A2 / RFU, IBTK / Fold change vs veh, IBTK / RFU, ESF1 / Fold change vs veh, ESF1 / Fold change vs veh, TMEM50B / RFU, TAOK1 / Fold change vs veh, TAOK1 / RFU, ACBD3 / Fold change vs veh, ACBD3 / RFU, TMA16 / Fold change vs veh, TMA16 / RFU, RWDD3 / Fold change vs veh, RWDD3 / RFU, BCAT1 / Fold change vs veh, BCAT1 / RFU, EDEM3 / Fold change vs veh, EDEM3 / RFU, TMEM33 / Fold change vs veh, TMEM33 / RFU, WDR75 / Fold change vs veh, WDR75 / RFU, AHCTF1 / Fold change vs veh, AHCTF1 / RFU, TFRC / Fold change vs veh, TFRC / RFU, ZDHHC17 / Fold change vs veh, ZDHHC17 / RFU, NOM1 / Fold change vs veh, NOM1 / RFU, ARL8B / Fold change vs veh, ARL8B / RFU, ZBTB11 / Fold change vs veh, ZBTB11 / RFU, TAMM41 / Fold change vs veh, TAMM41 / RFU, KIAA1704 /// LOC100996395 / Fold change vs veh, KIAA1704 /// LOC100996395 / RFU, ING1 / Fold change vs veh, ING1 / RFU, TRMT61B / Fold change vs veh, TRMT61B / RFU, FUBP3 / Fold change vs veh, FUBP3 / RFU, TP53 / Fold change vs veh, TP53 / RFU, TNKS2 / Fold change vs veh, TNKS2 / RFU, ZFP14 / Fold change vs veh, ZFP14 / RFU, ACTR2 / Fold change vs veh, ACTR2 / RFU, PPP3R1 / Fold change vs veh, PPP3R1 / RFU, PIK3R1 / Fold change vs veh, PIK3R1 / RFU, HNRNPA1 / Fold change vs veh, HNRNPA1 / RFU, RNF170 / Fold change vs veh, RNF170 / RFU, ZNF28 / Fold change vs veh, ZNF28 / RFU, RNGTT / Fold change vs veh, RNGTT / RFU, OGT / Fold change vs veh, OGT / RFU, BRD1 / Fold change vs veh, BRD1 / RFU, MARS / Fold change vs veh, MARS / RFU, ZNF655 / Fold change vs veh, ZNF655 / RFU, FAHD1 / Fold change vs veh, FAHD1 / RFU, BDP1 / Fold change vs veh, BDP1 / RFU, LRRCC1 / Fold change vs veh, LRRCC1 / RFU, ARID1A / Fold change vs veh, ARID1A / RFU, ZNF146 / Fold change vs veh, ZNF146 / RFU, ZNF330 / Fold change vs veh, ZNF330 / RFU, GPN3 / Fold change vs veh, GPN3 / RFU, C9orf123 / Fold change vs veh, C9orf123 / RFU, N4BP2L2 / Fold change vs veh, N4BP2L2 / RFU, ARFIP1 / Fold change vs veh, ARFIP1 / RFU, FAM179B / Fold change vs veh, FAM179B / RFU, BCL10 / Fold change vs veh, BCL10 / RFU, UHRF1BP1L / Fold change vs veh, UHRF1BP1L / RFU, BET1 / Fold change vs veh, BET1 / RFU, CNOT2 / Fold change vs veh, CNOT2 / RFU, ZNF268 / Fold change vs veh, ZNF268 / Fold change vs veh, ZNF507 / RFU, DGCR2 / Fold change vs veh, DGCR2 / RFU, WDSUB1 / Fold change vs veh, WDSUB1 / Fold change vs veh, HSP90B1 /// MIR3652 / RFU, ADSS / Fold change vs veh, ADSS / RFU, GK / Fold change vs veh, GK / RFU, ZNF148 / Fold change vs veh, ZNF148 / RFU, TAF9 / Fold change vs veh, TAF9 / RFU, SLC1A5 / Fold change vs veh, SLC1A5 / RFU, SLMO2 / Fold change vs veh, SLMO2 / RFU, ABCC4 / Fold change vs veh, ABCC4 / RFU, LOC101060439 /// RAP1B / Fold change vs veh, LOC101060439 /// RAP1B / RFU, RFX7 / Fold change vs veh, RFX7 / RFU, GTPBP10 / Fold change vs veh, GTPBP10 / RFU, CNEP1R1 / Fold change vs veh, CNEP1R1 / RFU, BIVM-ERCC5 /// ERCC5 / Fold change vs veh, BIVM-ERCC5 /// ERCC5 / RFU, ILF3 / Fold change vs veh, ILF3 / RFU 11762660_at / Fold change /veh 11762660_at / RFU VCAN (11757783_s_at) / Fold change /veh VCAN (11757783_s_at) / RFU DDX43 (11728927_at) / Fold change /veh DDX43 (11728927_at) / RFU KRT8 (11758188_x_at) / Fold change /veh KRT8 (11758188_x_at) / RFU NKD1 (11759106_at) / Fold change /veh NKD1 (11759106_at) / RFU SRD5A1 (11742802_a_at) / Fold change /veh SRD5A1 (11742802_a_at) / RFU TPSAB1 /// TPSB2 (11721975_s_at) / Fold change /veh TPSAB1 /// TPSB2 (11721975_s_at) / RFU GSTM3 (11746129_a_at) / Fold change /veh GSTM3 (11746129_a_at) / RFU IL23R (11737362_x_at) / Fold change /veh IL23R (11737362_x_at) / RFU TMEM51 (11727254_a_at) / Fold change /veh TMEM51 (11727254_a_at) / RFU PIWIL2 (11732686_x_at) / Fold change /veh PIWIL2 (11732686_x_at) / RFU ORM1 (11744905_x_at) / Fold change /veh ORM1 (11744905_x_at) / RFU CCDC152 (11743942_at) / Fold change /veh CCDC152 (11743942_at) / RFU ECM1 (11717891_a_at) / Fold change /veh ECM1 (11717891_a_at) / RFU IL23R (11748794_a_at) / Fold change /veh IL23R (11748794_a_at) / RFU TNFAIP8L3 (11732012_x_at) / Fold change /veh TNFAIP8L3 (11732012_x_at) / RFU MBOAT4 (11741988_at) / Fold change /veh MBOAT4 (11741988_at) / RFU 11764193_at / Fold change /veh 11764193_at / RFU TMEM53 (11763286_at) / Fold change /veh TMEM53 (11763286_at) / RFU MAGEB2 (11727129_at) / Fold change /veh MAGEB2 (11727129_at) / RFU TMEM200A (11744735_a_at) / Fold change /veh TMEM200A (11744735_a_at) / RFU CCDC152 (11751479_a_at) / Fold change /veh CCDC152 (11751479_a_at) / RFU FAM211A (11726209_a_at) / Fold change /veh FAM211A (11726209_a_at) / RFU RGS16 (11746705_a_at) / Fold change /veh RGS16 (11746705_a_at) / RFU VCAN (11755009_s_at) / Fold change /veh VCAN (11755009_s_at) / RFU RHOB (11743442_s_at) / Fold change /veh RHOB (11743442_s_at) / RFU RGS16 (11720943_a_at) / Fold change /veh RGS16 (11720943_a_at) / RFU RGS16 (11720944_at) / Fold change /veh RGS16 (11720944_at) / RFU, VPS4B / Fold change vs veh, VPS4B / RFU, CREB1 / Fold change vs veh, CREB1 / RFU, DNAJC13 / Fold change vs veh, DNAJC13 / RFU, GNAQ / Fold change vs veh, GNAQ / RFU, CDK5R1 / Fold change vs veh, CDK5R1 / RFU, ZRANB3 / Fold change vs veh, ZRANB3 / RFU, CUL4A / Fold change vs veh, CUL4A / RFU, CCNY / Fold change vs veh, CCNY / RFU, UFL1 / Fold change vs veh, UFL1 / RFU, COG3 / Fold change vs veh, COG3 / RFU, DIAPH2 / Fold change vs veh, DIAPH2 / RFU, SKA2 / Fold change vs veh, SKA2 / RFU, AFF3 / Fold change vs veh, AFF3 / RFU, LMF1 / Fold change vs veh, LMF1 / RFU, IPO11 / Fold change vs veh, IPO11 / RFU, DFFB / Fold change vs veh, DFFB / RFU, FOXP1 / Fold change vs veh, FOXP1 / RFU, CARD8 / Fold change vs veh, CARD8 / RFU, STRN3 / Fold change vs veh, STRN3 / RFU, ADK / Fold change vs veh, ADK / RFU, RASSF2 / Fold change vs veh, RASSF2 / RFU, WIPF1 / Fold change vs veh, WIPF1 / RFU, LARP1B / Fold change vs veh, LARP1B / RFU, RASA1 / Fold change vs veh, RASA1 / RFU, RB1 / Fold change vs veh, RB1 / RFU, PPFIA1 / Fold change vs veh, PPFIA1 / RFU, MAT2A / Fold change vs veh, MAT2A / RFU, CCT5 / Fold change vs veh, CCT5 / RFU, WDR92 / Fold change vs veh, WDR92 / RFU, CUX1 / Fold change vs veh, CUX1 / RFU, TTC7A / Fold change vs veh, TTC7A / RFU, TMEM135 / Fold change vs veh, TMEM135 / RFU, DEPTOR / Fold change vs veh, DEPTOR / RFU, CPM / Fold change vs veh, CPM / RFU, DNAJB6 / Fold change vs veh, DNAJB6 / RFU, CACNA2D3 / Fold change vs veh, CACNA2D3 / RFU, DTX4 / Fold change vs veh, DTX4 / RFU, TFCP2 / Fold change vs veh, TFCP2 / RFU, GMCL1 /// GMCL1P1 / Fold change vs veh, GMCL1 /// GMCL1P1 / RFU, AEBP2 / Fold change vs veh, AEBP2 / RFU, SNHG1 /// SNORD22 /// SNORD25 /// SNORD26 /// SNORD27 /// SNORD28 /// SNORD29 /// SNORD31 / Fold change vs veh, SNHG1 /// SNORD22 /// SNORD25 /// SNORD26 /// SNORD27 /// SNORD28 /// SNORD29 /// SNORD31 / Fold change (Aza/veh), C12orf56 (ProbeSet 11735607_a_at) / Fold change (ACY-1035/veh), C12orf56 (ProbeSet 11735607_a_at) / Fold change (Aza/veh), FGFR1OP (ProbeSet 11751329_s_at) / Fold change (ACY-1035/veh), FGFR1OP (ProbeSet 11751329_s_at) / Fold change (Aza/veh), VPS36 (ProbeSet 11739960_a_at) / Fold change (ACY-1035/veh), VPS36 (ProbeSet 11739960_a_at) / RFU SYPL1 (11715823_x_at) / Fold change /veh SYPL1 (11715823_x_at) / RFU IGFBP7 (11715501_s_at) / Fold change /veh IGFBP7 (11715501_s_at) / RFU REEP3 (11722064_at) / Fold change /veh REEP3 (11722064_at) / RFU IGLL1 (11728026_x_at) / Fold change /veh IGLL1 (11728026_x_at): dose or concentration left out as unconfirmed", "conditions": "MV-4-11 cells, 48 hours", "data": [{"smiles": "Nc1ncn([C@@H]2O[C@H](CO)[C@@H](O)[C@H]2O)c(=O)n1", "note": "[azacitidine]", "values": [{"measurement": "RFU EBF3 (11725865_a_at)", "value": 64.76, "unit": "RFU"}]}]}
